Results reported in patent publication US12263175B2, “Optimised dosage of diaminophenothiazines in populations” (WisTa Laboratories Ltd., priority 2018, dated 2025).
Where “and” joins values, the source holds several entries; their conditions need not be identical. Equal entries are not always repeated. Where two headings read alike, the source gives them in different places.

Columns and labels:
bvFTD patients = test: Phase 3 bvFTD trial: clinical and MRI endpoints by Cmax,ss group; format: in vivo, human
Text: The trial design for the Phase 3 trial of LMTM in behavioural variant frontotemporal dementia (bvFTD) is described in Examples 3 to 10 of WO2018/041739, which Examples also discuss those results. The disclosure of those Examples is specifically incorporated herein by reference.
(§1) The population PK model described above was used to estimate Cmax of parent MT in the patients in the bvFTD study. As with the AD trials described above, the median value at each dose was taken as a threshold for dividing patients into “High Cmax” and “Low Cmax” groups.
However the decline in the Cmax high group was much reduced (−6.1±1.8). All efficacy analyses are based on an MMRM approach
Alternative efficacy analyses were performed in which the group of patients with minimal systemic exposure to the drug was used as a proxy for placebo. These are shown in the Table EX8 below and illustrated in FIG. 19.
In addition, a linear term was added to permit trends occurring at high concentrations to be included in the model using mean decline occurring at the 200 mg/day dose.

[1] = test system: tau transgenic mouse model; test: Tau transgenic mouse model, spatial learning memory after pre-treatment with symptomatic drugs; format: in vivo
Text: As is evident from the foregoing, there is a reduction in the maximum effect of LMTM when it is combined with symptomatic treatments. It should be noted however, that this relates to a context in which patients have received LMTM against a background of chronic pre-treatment with symptomatic drugs. The mechanism of this has been elucidated in a series of experiments in a well characterised tau transgenic mouse model.

[2] = Population PK model estimate of steady-state parent MT Cmax in bvFTD trial patients; format: in vivo; settings: human, plasma, oral, 8 mg/day, read-out: Cmax,ss cut-off, upper limit of the lowest 35% group
Procedure: as §1
The cut-off that defined the upper limit of the lowest 35% group (corresponding to the percentage of patients with plasma levels below the validated limit of quantitation in Day 1) was 0.346 ng/ml for the bvFTD population.
As for AD (see Example 10) the remainder with Day 1 plasma levels within the validated range of quantitation at the 8 mg/day dose were distributed in 3 groups having approximately equal numbers (22% each; see Table EX7 below).

AD patients = test: Phase 3 AD studies 005 and 015: clinical and MRI volumetric endpoints by Cmax,ss group; format: in vivo, human; settings: for EC50: Homo sapiens, 10920 h, ADAS-cog over 65 weeks, read-out: Cmax,ss concentration required for half-maximal treatment response
Procedure: The trial design for the Phase 3 AD studies “005” and “015” are described in Examples 4 and 3 respectively of WO2018/019823, which Examples also discuss those results. The disclosure of those Examples is specifically incorporated herein by reference. Briefly, those Phase 3 trials compared high doses of LMTM (150-250 mg/day) with a low dose (8 mg/day) intended as a mask for potential urine discolouration (Gauthier 2016; Wilcock 2018).
The results are shown in FIGS. 3a and 3b which show the same data. Patients using symptomatic treatments are labelled “Achmem”.
(§2) That threshold was <0.373 ng/mL.
A further analysis of ADAS-cog decline over 65 weeks was undertaken using a modified form of the Hill equation (Wagner, 1968) in order to estimate the minimum and maximum plasma concentrations for expected treatment response over 65 weeks. […] In addition, a linear term was added to permit trends occurring at high concentrations to be included in the model using data for doses in the range 150-250 mg/day. The expanded Hill equation was applied to the data in the form: change in parameter=Emin−(Emax*([C]−0.29))/(EC50+([C]−0.29))+(A*([C]−0.29)) where Emin is the imposed zero value, Emax is the maximum treatment effect assumed in the standard Hill equation, EC50 is the Cmax,ss at which the treatment effect is 50% of the maximum assumed in the standard Hill equation and A is a further linear term estimated by the model to take account of a potential biphasic response. […] The dose range in which the treatment response is estimated to be maximal is 20-60 mg/day.

[3] = Population PK model estimate of steady-state parent MT Cmax in AD patients (Studies 005 and 015); format: in vivo, human; settings: for Cmax: human, plasma, oral
Text: This, the PK model was then further developed and simplified to a two compartment model fit to the parent MT concentrations only. This model has a fixed Vc, but the dose-dependent Ka is removed.
This model was derived from Study 036 discussed above. The disposition of parent MT post PO administration of LMTM was adequately described by a two-compartment model with and a delayed absorption occurring through two transit compartments. Apparent oral clearance (CL/F) of parent MT was related to renal function such that a small portion of the variability in parent CL is described by normalized creatinine clearance (CLCRN).
The population PK model was then used to estimate Cmax of parent MT in the patients who received 4 mg or high dose (c. 200 mg/day) in these Phase 3 AD studies. This Bayesian process involved fixing the population mean and inter-individual variability parameters to the estimates from the fit of the population PK model to the steady-state data from Study 036 and allowing the program to select a set of parameters, given those Bayesian priors, which best predicts the parent MT concentrations from Day 1 in each individual.
as §2
Higher doses were grouped according to dose (N=187-329 per group).
Since only 65% of patients receiving the 8 mg/day have plasma concentrations above the threshold required for significant treatment benefit, it is desirable to determine the minimum dose at which 100% patients would be expected to have plasma levels within the therapeutic range.

[4] = A. All patients split by Cmax,ss 0.373 ng/mL, over 65 weeks
[5] = B. Patients receiving LMTM, 8 mg/day, over 65 weeks
[6] = LMTM, 8 mg/day, as add-on therapy (AChEI and/or memantine), over 65 weeks
[7] = LMTM, 8 mg/day, as monotherapy, over 65 weeks
[8] = LMTM, 8 mg/day, threshold 0.373 ng/ml, over 65 weeks

CN(C)c1ccc2c(c1)Sc1cc(N(C)C)ccc1N2 [LMTM, leuco-methylthioninium bis(hydromethanesulfonate)]
Lower limiting plasma concentration required for treatment response (bvFTD patients; bvFTD patients receiving 8 mg/day, expanded Hill equation): 0.29 ng/mL
Dose-response for high dose monotherapy on functional FAQ scale (bvFTD patients; bvFTD, 200 mg/day vs 8 mg/day): inverse dose-response
Predicted dose corresponding to the maximum limiting concentration (bvFTD patients; bvFTD, whole brain volume over 52 weeks): 301 mg/day
Maximum limiting concentration at which the treatment effect was lost (bvFTD patients; bvFTD, whole brain volume over 52 weeks, expanded Hill equation): 13.57 ng/mL
Effect on spatial learning memory ([1]; chronic pre-treatment with rivastigmine): elimination of the beneficial effect
Effect on spatial learning memory ([1]; pre-treatment with memantine): eliminated the effect
Cmax [2]: 0.346 ng/mL
Predicted treatment effect relative to placebo (AD patients; 4 mg bid, over 65 weeks): ~5 ADAS-cog units
ADAS-cog Difference ± SEM, Cmax,ss above vs below 0.373 ng/mL (AD patients; [4]): −2.99 ± 0.67 ADAS-cog units
ADCS-ADL Difference ± SEM, Cmax,ss above vs below 0.373 ng/mL (AD patients; [4]): 0.54 ± 0.94
LVV Difference ± SEM, Cmax,ss above vs below 0.373 ng/mL (AD patients; [4]): −1.52 ± 0.34 cm^3
WBV Difference ± SEM, Cmax,ss above vs below 0.373 ng/mL (AD patients; [4]): 3.55 ± 1.06 cm^3
ADCS-ADL Difference ± SEM, Cmax,ss above vs below 0.373 ng/mL (AD patients; [5]): 1.22 ± 1.01
LVV Difference ± SEM, Cmax,ss above vs below 0.373 ng/mL (AD patients; [5]): −1.78 ± 0.38 cm^3
WBV Difference ± SEM, Cmax,ss above vs below 0.373 ng/mL (AD patients; [5]): 4.39 ± 1.18 cm^3
EC50 (AD patients; LMTM combined with symptomatic treatments): 0.4 ± 0.05 ng/mL
EC50 (AD patients; LMTM monotherapy): 0.32 ± 0.01 ng/mL
ADAS-cog11 Difference ± SEM, Cmax,ss above vs below 0.373 ng/mL (AD patients; [6]): −3.52 ± 0.78
ADCS-ADL23 Difference ± SEM, Cmax,ss above vs below 0.373 ng/mL (AD patients; [6]): 1.32 ± 1.04
LVV Difference ± SEM, Cmax,ss above vs below 0.373 ng/mL (AD patients; [6]): −1.35 ± 0.37 cm^3
WBV Difference ± SEM, Cmax,ss above vs below 0.373 ng/mL (AD patients; [6]): 4.69 ± 1.21 cm^3
ADAS-cog11 Difference ± SEM, Cmax,ss above vs below 0.373 ng/mL (AD patients; [7]): −2.60 ± 1.16
ADCS-ADL23 Difference ± SEM, Cmax,ss above vs below 0.373 ng/mL (AD patients; [7]): 0.46 ± 1.47
LVV Difference ± SEM, Cmax,ss above vs below 0.373 ng/mL (AD patients; [7]): −1.46 ± 0.45 cm^3
WBV Difference ± SEM, Cmax,ss above vs below 0.373 ng/mL (AD patients; [7]): 2.76 ± 1.66 cm^3
ADAS-cog11 Difference ± SEM, low Cmax add-on vs high Cmax monotherapy (AD patients; [8]): −7.53 ADAS-cog11 units and −7.53 ± 1.22 ADAS-cog11 units
ADCS-ADL23 Difference ± SEM, low Cmax add-on vs high Cmax monotherapy (AD patients; [8]): 6.14 ± 1.64
LVV Difference ± SEM, low Cmax add-on vs high Cmax monotherapy (AD patients; [8]): −3.15 ± 0.62 cm^3
WBV Difference ± SEM, low Cmax add-on vs high Cmax monotherapy (AD patients; [8]): 11.54 ± 1.87 cm^3
Dose range in which the treatment response is estimated to be maximal (AD patients; expanded Hill equation, ADAS-cog decline over 65 weeks): 20 to 60 mg/day
Reduction of estimated maximum treatment effect when combined with symptomatic treatments, compared with monotherapy (AD patients; expanded Hill equation, over 65 weeks): about 4 ADAS-cog units
Temporal lobe FDG-PET decline (AD patients; high dose LMTM (pooled 200 mg/day)): attenuated benefit otherwise seen for LMTM monotherapy
Mean difference between monotherapy and add-on, ADAS-cog change (AD patients; pooled 8 mg/day (4 mg bid), Studies 005 and 015, over 65 weeks): ~4 ADAS-cog units
Proportion of subjects above Cmax threshold ([3]; 4 mg bid): 50%
Critical therapeutic threshold for Cave,ss ([3]; AD patients): 0.223 ng/mL
Critical therapeutic threshold for Cmax,ss ([3]; AD patients): 0.393 ng/mL
Patients with plasma concentrations above the threshold required for significant treatment benefit ([3]; AD patients receiving 8 mg/day): 65%
Plasma-modelled parent MT Cmax,ss Mean (SD) ([3]; AD, studies TRx-237-015 and TRx-237-005, 8 mg/day - Group 2): 0.393 (0.0125) ng/mL
Dose for 100% of patients to have plasma levels in the therapeutic range ([3]; AD, QD or BID, either Cmax,ss or Cave,ss criterion): at least 16 mg/day
Proportion of subjects achieving Cmax above the median-derived threshold value ([3]; dosing above 20 mg MT (e.g. as LMTM), depends on number of split doses): 90 to 100%
Cmax ([3]; 8 mg/day, AD patients receiving LMTM 8 mg/day, read-out: Cmax,ss threshold, upper limit of the lowest 35% of patients): < 0.373 ng/mL
Cmax ([3]; 8 mg/day, AD, studies TRx-237-015 and TRx-237-005, 8 mg/day - Group 1, read-out: Plasma-modelled parent MT Cmax,ss Range): 0.257 to 0.373 ng/mL
Cmax ([3]; 8 mg/day, AD, studies TRx-237-015 and TRx-237-005, 8 mg/day - Group 2, read-out: Plasma-modelled parent MT Cmax,ss Range): 0.373 to 0.414 ng/mL
Cmax ([3]; 8 mg/day, AD, studies TRx-237-015 and TRx-237-005, 8 mg/day - Group 3, read-out: Plasma-modelled parent MT Cmax,ss Range): 0.415 to 0.478 ng/mL
Cmax ([3]; 8 mg/day, AD, studies TRx-237-015 and TRx-237-005, 8 mg/day - Group 4, read-out: Plasma-modelled parent MT Cmax,ss Range): 0.479 to 0.812 ng/mL
Cmax ([3]; 150 mg/day, AD, studies TRx-237-015 and TRx-237-005, 150 mg/day, read-out: Plasma-modelled parent MT Cmax,ss Range): 5.1 to 18.6 ng/mL
Cmax ([3]; 200 mg/day, AD, studies TRx-237-015 and TRx-237-005, 200 mg/day, read-out: Plasma-modelled parent MT Cmax,ss Range): 6.56 to 21.3 ng/mL
Cmax ([3]; 250 mg/day, AD, studies TRx-237-015 and TRx-237-005, 250 mg/day, read-out: Plasma-modelled parent MT Cmax,ss Range): 8.83 to 21.2 ng/mL
Estimated proportion of subjects above Cmax threshold ([3]; ˜20 mg/day (10 mg bid)): ~100%
